Values quoted from earlier work, collected in US11655474B2, “Suppression of pathological angiogenesis by inhibition of NR2F6” (Regen Biopharma, Inc., priority 2019, dated 2023).

Columns and labels:
[1] = system: human microvascular ECs; details: human microvascular ECs cultured in tumor-conditioned medium
[2] = system: ovarian cancer patients
[3] = subset that received paclitaxel with the antibody

Row | Compound | tumor CM-induced MDR1 up-regulation [1] | HR, overall survival ([2]; bevacizumab plus chemotherapy compared with chemotherapy alone, 95 percent CI: 0.69, 1.14) | median progression free survival (PFS) ([2]; bevacizumab plus chemotherapy, ovarian cancer patients, chemotherapy alone 3.4 months) [months] | median overall survival (OS) ([2]; bevacizumab plus chemotherapy, chemotherapy alone 13.3 months) [months] | improvement in median OS [2, 3] [month] | improvement in median PFS [2, 3] [month] | HR, PFS ([2]; subset that received paclitaxel with the antibody, 95 percent CI: 0.31, 0.72) | HR, OS ([2]; subset that received paclitaxel with the antibody, 95 percent CI: 0.41, 1.01) | median PFS ([2]; subset that received paclitaxel with the antibody, versus 3.9 months) [months] | median OS ([2]; subset that received paclitaxel with the antibody, versus 13.2 months) [months] | objective response rate ([2]; subset that received paclitaxel with the antibody, versus 30 percent) [%]
1 | COc1cc2nccc(Oc3ccc(NC(=O)Nc4ccc(F)cc4F)c(F)c3)c2cc1OC [Ki8751] | blocked | – | – | – | – | – | – | – | – | – | –
2 | bevacizumab: antibody which binds VEGF | – | 0.89 | 6.8 | 16.6 | 9.2 | 5.7 | 0.47 | 0.64 | 9.6 | 22.4 | 53
